Measurements from US20180265515A1 (Genentech, Inc., priority 2015, published 2018).

Legend:
LRRK2 = LRRK2 (Homo sapiens, UniProt Q5S007); assay: LRRK2 assay (Life Technologies Adapta, SelectScreen Profiling, IC50); type: biochemical; details: for IC50: 75 μM ATP, 10-point curves, read-out: LRRK 2 IC50; for Ratio (LRRK 2 IC50: JAK1 Ki): selectivity ratio LRRK2 IC50 over JAK1 Ki; for selectivity for JAK1 over LRRK2 (in words): 5-sulfanylphenyl compound compared with 5-chlorophenyl matched pair
[1] = molecular target: T1, isolated recombinant JAK1 kinase domain (Homo sapiens, UniProt P23458); assay: JAK1 enzyme assay (Caliper LabChip, Ki); type: biochemical; details: 25 μM ATP
T1 construct: The activity of the isolated recombinant JAK1 and JAK2 kinase domain was measured
T1 sequence (P23458 875-1153 limits assumed): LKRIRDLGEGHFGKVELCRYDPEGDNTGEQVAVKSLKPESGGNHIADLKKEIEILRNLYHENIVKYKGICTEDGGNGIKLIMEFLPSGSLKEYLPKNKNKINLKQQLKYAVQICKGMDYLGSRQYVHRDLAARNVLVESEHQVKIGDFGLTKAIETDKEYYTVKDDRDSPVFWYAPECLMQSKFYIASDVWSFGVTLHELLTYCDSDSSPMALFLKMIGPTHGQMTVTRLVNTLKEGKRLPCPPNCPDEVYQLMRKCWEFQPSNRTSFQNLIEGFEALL
Method in brief: (§1)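 Ki values fitted with Morrison tight-binding equation adjusted for ATP-competitive inhibition, using product-to-total peptide ratio read by Caliper LabChip. Reactions: isolated JAK1 or JAK2 kinase domain with N-terminal 5-carboxyfluorescein JAK3-derived peptide, 22° C for 30 min, quenched by EDTA.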

[2] = tested on: JAK1-dependent STAT6 phosphorylation downstream of IL-13 stimulation in BEAS-2B human bronchial epithelial cells; assay: JAK1 pathway assay in BEAS-2B cells (IL-13 stimulated STAT6 phosphorylation, MSD); type: cell-based; details: read-out: P-STAT6 BEAS2B + IL13 IC50
Method in brief: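 BEAS-2B human bronchial epithelial cells, plated the day before in complete growth medium, were preincubated with compound for 1 hr at 37° C (0.2% DMSO final), then stimulated with IL-13 at its EC90 for 15 min. STAT6 phosphorylation in lysates was read by MSD; EC50 was taken as 50% inhibition versus DMSO control.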

[3] = molecular target: T2, isolated recombinant JAK2 kinase domain (Homo sapiens, UniProt O60674); assay: JAK2 enzyme assay (Caliper LabChip, Ki); type: biochemical; details: 25 μM ATP
T2 construct: The activity of the isolated recombinant JAK1 and JAK2 kinase domain was measured
T2 sequence (O60674 849-1124 limits assumed): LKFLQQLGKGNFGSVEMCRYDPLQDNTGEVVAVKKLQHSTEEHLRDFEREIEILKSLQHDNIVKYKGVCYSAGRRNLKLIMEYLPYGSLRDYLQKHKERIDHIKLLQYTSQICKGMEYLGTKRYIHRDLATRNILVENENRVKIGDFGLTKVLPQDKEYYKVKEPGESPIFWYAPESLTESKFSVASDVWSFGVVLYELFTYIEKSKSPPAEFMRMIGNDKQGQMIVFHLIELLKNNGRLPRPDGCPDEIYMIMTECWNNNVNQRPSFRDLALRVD
Method in brief: as §1

Chain of LRRK2 (Q5S007 970-2527 limits assumed): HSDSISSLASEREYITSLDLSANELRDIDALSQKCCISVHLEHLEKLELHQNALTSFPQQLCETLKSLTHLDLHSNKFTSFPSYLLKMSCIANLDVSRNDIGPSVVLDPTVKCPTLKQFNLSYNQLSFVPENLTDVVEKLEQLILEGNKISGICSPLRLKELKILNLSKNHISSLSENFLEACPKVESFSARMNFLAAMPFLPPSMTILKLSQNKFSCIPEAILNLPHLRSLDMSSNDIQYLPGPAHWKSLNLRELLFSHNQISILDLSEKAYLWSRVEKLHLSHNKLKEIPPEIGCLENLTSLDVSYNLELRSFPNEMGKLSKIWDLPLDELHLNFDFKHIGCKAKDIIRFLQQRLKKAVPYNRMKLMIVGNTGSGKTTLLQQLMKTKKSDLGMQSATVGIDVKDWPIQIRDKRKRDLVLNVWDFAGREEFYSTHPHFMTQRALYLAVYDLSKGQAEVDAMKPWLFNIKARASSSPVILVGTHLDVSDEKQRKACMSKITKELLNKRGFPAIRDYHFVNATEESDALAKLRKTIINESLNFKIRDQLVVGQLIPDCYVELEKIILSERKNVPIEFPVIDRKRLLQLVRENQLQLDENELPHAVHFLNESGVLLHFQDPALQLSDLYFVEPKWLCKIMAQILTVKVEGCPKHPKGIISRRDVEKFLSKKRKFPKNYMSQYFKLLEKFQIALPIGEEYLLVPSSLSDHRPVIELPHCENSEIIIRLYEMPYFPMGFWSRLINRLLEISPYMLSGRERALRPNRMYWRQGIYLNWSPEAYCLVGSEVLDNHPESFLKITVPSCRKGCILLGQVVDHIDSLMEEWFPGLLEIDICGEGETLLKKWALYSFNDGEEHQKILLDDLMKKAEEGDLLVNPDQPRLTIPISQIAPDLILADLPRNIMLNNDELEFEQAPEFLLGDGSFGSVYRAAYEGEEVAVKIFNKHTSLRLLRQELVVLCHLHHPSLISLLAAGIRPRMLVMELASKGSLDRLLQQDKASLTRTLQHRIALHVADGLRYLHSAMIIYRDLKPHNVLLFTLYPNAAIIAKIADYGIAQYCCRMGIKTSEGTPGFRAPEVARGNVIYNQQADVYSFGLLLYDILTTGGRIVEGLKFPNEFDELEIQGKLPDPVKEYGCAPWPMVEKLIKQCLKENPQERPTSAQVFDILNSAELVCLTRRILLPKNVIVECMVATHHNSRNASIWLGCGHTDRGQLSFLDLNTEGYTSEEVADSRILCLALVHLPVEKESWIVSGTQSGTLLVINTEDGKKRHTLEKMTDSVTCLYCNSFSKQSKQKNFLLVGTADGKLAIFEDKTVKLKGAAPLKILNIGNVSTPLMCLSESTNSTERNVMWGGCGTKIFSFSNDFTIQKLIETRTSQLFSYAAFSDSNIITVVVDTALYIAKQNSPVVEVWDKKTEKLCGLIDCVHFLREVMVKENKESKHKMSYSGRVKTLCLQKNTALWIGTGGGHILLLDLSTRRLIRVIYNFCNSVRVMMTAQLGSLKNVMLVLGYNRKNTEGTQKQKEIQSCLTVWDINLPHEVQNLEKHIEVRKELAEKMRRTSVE

| IC50 (LRRK2) | Ratio (LRRK 2 IC50: JAK1 Ki) (LRRK2) | Ki ([1]; Morrison tight binding model) | Ki [3] | Ki ([1]; recombinant JAK1 kinase domain) | SMILES | selectivity for JAK1 over LRRK2 (in words) (LRRK2) | IC50 [2] |
| --- | --- | --- | --- | --- | --- | --- | --- |
| 80.9 nM | 449 | 0.18 nM |  |  | Cn1cc(NC(=O)c2cnn3cccnc23)c(-c2cc(Cl)ccc2OC(F)F)n1 [A, reference compound] |  |  |
| 431 nM | 1078 | 0.4 nM |  |  | CC(C)(O)Cn1cc(NC(=O)c2cnn3cccnc23)c(-c2cc(Cl)ccc2OC(F)F)n1 [B, reference compound] |  |  |
| 1030 nM | 1493 | 0.69 nM |  |  | O=C(Nc1cn(C2CCOCC2)nc1-c1cc(Cl)ccc1OC(F)F)c1cnn2cccnc12 [C, reference compound] |  |  |
| 193 nM | 1485 | 0.13 nM |  |  | CSc1ccc(OC(F)F)c(-c2nn(C)cc2NC(=O)c2cnn3cccnc23)c1 [D] | greater selectivity for JAK1 over LRRK2 than their 5-chlorophenyl matched pair A |  |
| 2220 nM | 8880 | 0.25 nM |  |  | CC(C)Sc1ccc(OC(F)F)c(-c2nn(C)cc2NC(=O)c2cnn3cccnc23)c1 [E] | greater selectivity for JAK1 over LRRK2 than their 5-chlorophenyl matched pair A |  |
|  |  |  | 0.76 nM | 1 nM | O=C(Nc1cn(CCN[C@@H]2CCCOC2)nc1-c1cc(SC2COC2)ccc1OC(F)F)c1cnn2cccnc12 [Example 180, N-[3-[2-(difluoromethoxy)-5-(oxetan-3-ylsulfanyl)phenyl]-1-[2-[[(3R)-tetrahydropyran-3-yl]amino]ethyl]pyrazol-4-yl]pyrazolo[1,5-a]pyrimidine-3-carboxamide] |  | 14 nM |
|  |  |  | 1.8 nM | 0.8 nM | CCN1CCN(C(=O)Cn2cc(NC(=O)c3cnn4cccnc34)c(-c3cc(SC4COC4)ccc3OC(F)F)n2)CC1 [Example 181, N-[3-[2-(difluoromethoxy)-5-(oxetan-3-ylsulfanyl)phenyl]-1-[2-(4-ethylpiperazin-1-yl)-2-oxo-ethyl]pyrazol-4-yl]pyrazolo[1,5-a]pyrimidine-3-carboxamide] |  | 83 nM |
|  |  |  | 1.9 nM | 0.92 nM | O=C(Nc1cn(CC(=O)N2CCC(N3CCOCC3)CC2)nc1-c1cc(SC2COC2)ccc1OC(F)F)c1cnn2cccnc12 [Example 182, N-[3-[2-(difluoromethoxy)-5-(oxetan-3-ylsulfanyl)phenyl]-1-[2-(4-morpholino-1-piperidyl)-2-oxo-ethyl]pyrazol-4-yl]pyrazolo[1,5-a]pyrimidine-3-carboxamide] |  | 91 nM |
|  |  |  | 1.5 nM | 0.65 nM | O=C(Nc1cn(CC(=O)N2CCC(CN3CCOCC3)CC2)nc1-c1cc(SC2COC2)ccc1OC(F)F)c1cnn2cccnc12 [Example 183, N-[3-[2-(difluoromethoxy)-5-(oxetan-3-ylsulfanyl)phenyl]-1-[2-[4-(morpholinomethyl)-1-piperidyl]-2-oxo-ethyl]pyrazol-4-yl]pyrazolo[1,5-a]pyrimidine-3-carboxamide] |  | 33 nM |
|  |  |  | 1.1 nM | 0.56 nM | O=C(Nc1cn(CC(=O)N2CCN(C3CCOCC3)CC2)nc1-c1cc(SC2COC2)ccc1OC(F)F)c1cnn2cccnc12 [Example 184, N-[3-[2-(difluoromethoxy)-5-(oxetan-3-ylsulfanyl)phenyl]-1-[2-oxo-2-(4-tetrahydropyran-4-ylpiperazin-1-yl)ethyl]pyrazol-4-yl]pyrazolo[1,5-a]pyrimidine-3-carboxamide] |  | 74 nM |
|  |  |  | 1.7 nM | 0.71 nM | CC(F)(F)CNC1CCN(C(=O)Cn2cc(NC(=O)c3cnn4cccnc34)c(-c3cc(SC4COC4)ccc3OC(F)F)n2)CC1 [Example 185, N-[3-[2-(difluoromethoxy)-5-(oxetan-3-ylsulfanyl)phenyl]-1-[2-[4-(2,2-difluoropropylamino)-1-piperidyl]-2-oxo-ethyl]pyrazol-4-yl]pyrazolo[1,5-a]pyrimidine-3-carboxamide] |  | 47 nM |
|  |  |  | 1.8 nM | 0.65 nM | CC(C)(C#N)CNC1CCN(C(=O)Cn2cc(NC(=O)c3cnn4cccnc34)c(-c3cc(SC4COC4)ccc3OC(F)F)n2)CC1 [Example 186, N-[1-[2-[4-[(2-cyano-2-methyl-propyl)amino]-1-piperidyl]-2-oxo-ethyl]-3-[2-(difluoromethoxy)-5-(oxetan-3-ylsulfanyl)phenyl]pyrazol-4-yl]pyrazolo[1,5-a]pyrimidine-3-carboxamide] |  | 90 nM |
|  |  |  | 1.3 nM | 0.54 nM | CN(C1CCN(C(=O)Cn2cc(NC(=O)c3cnn4cccnc34)c(-c3cc(SC4COC4)ccc3OC(F)F)n2)CC1)C1COC1 [Example 187, N-[3-[2-(difluoromethoxy)-5-(oxetan-3-ylsulfanyl)phenyl]-1-[2-[4-[methyl(oxetan-3-yl)amino]-1-piperidyl]-2-oxo-ethyl]pyrazol-4-yl]pyrazolo[1,5-a]pyrimidine-3-carboxamide] |  | 250 nM |
|  |  |  | 1.3 nM | 0.62 nM | O=C(Nc1cn(CC(=O)N2CCN(CC3CCOCC3)CC2)nc1-c1cc(SC2COC2)ccc1OC(F)F)c1cnn2cccnc12 [Example 188, N-[3-[2-(difluoromethoxy)-5-(oxetan-3-ylsulfanyl)phenyl]-1-[2-oxo-2-[4-(tetrahydropyran-4-ylmethyl)piperazin-1-yl]ethyl]pyrazol-4-yl]pyrazolo[1,5-a]pyrimidine-3-carboxamide] |  | 48 nM |
|  |  |  | 3 nM | 1 nM | N#CC1(CNC2CCN(C(=O)Cn3cc(NC(=O)c4cnn5cccnc45)c(-c4cc(SC5COC5)ccc4OC(F)F)n3)CC2)CC1 [Example 189, N-[1-[2-[4-[(1-cyanocyclopropyl)methylamino]-1-piperidyl]-2-oxo-ethyl]-3-[2-(difluoromethoxy)-5-(oxetan-3-ylsulfanyl)phenyl]pyrazol-4-yl]pyrazolo[1,5-a]pyrimidine-3-carboxamide] |  | 770 nM |
|  |  |  | 3.8 nM | 1.1 nM | CN1CCN(C2CCN(C(=O)Cn3cc(NC(=O)c4cnn5cccnc45)c(-c4cc(SC5COC5)ccc4OC(F)F)n3)CC2)CC1 [Example 190, N-[3-[2-(difluoromethoxy)-5-(oxetan-3-ylsulfanyl)phenyl]-1-[2-[4-(4-methylpiperazin-1-yl)-1-piperidyl]-2-oxo-ethyl]pyrazol-4-yl]pyrazolo[1,5-a]pyrimidine-3-carboxamide] |  | 170 nM |
|  |  |  | 1 nM | 0.44 nM | COC(=O)N1CCN(CC2CCN(C(=O)Cn3cc(NC(=O)c4cnn5cccnc45)c(-c4cc(SC5COC5)ccc4OC(F)F)n3)CC2)CC1 [Example 191, methyl 4-[[1-[2-[3-[2-(difluoromethoxy)-5-(oxetan-3-ylsulfanyl)phenyl]-4-(pyrazolo[1,5-a]pyrimidine-3-carbonylamino)pyrazol-1-yl]acetyl]-4-piperidyl]methyl]piperazine-1-carboxylate] |  | 49 nM |
|  |  |  | 0.055 nM | 0.12 nM | CCSc1ccc(OC(F)F)c(-c2n[nH]cc2NC(=O)c2cnn3cccnc23)c1 [Example 192, N-[3-[2-(difluoromethoxy)-5-ethylsulfanyl-phenyl]-1H-pyrazol-4-yl]pyrazolo[1,5-a]pyrimidine-3-carboxamide] |  | 2 nM |
|  |  |  | 0.57 nM | 0.36 nM | CCSc1ccc(OC(F)F)c(-c2nn(CC(=O)N3CCC(N4CCOCC4)CC3)cc2NC(=O)c2cnn3cccnc23)c1 [Example 193] |  | 17 nM |
|  |  |  | 0.63 nM | 0.31 nM | CCSc1ccc(OC(F)F)c(-c2nn(CC(=O)N3CCC(N(C)CCC#N)CC3)cc2NC(=O)c2cnn3cccnc23)c1 [Example 194, N-[1-[2-[4-[2-cyanoethyl(methyl)amino]-1-piperidyl]-2-oxo-ethyl]-3-[2-(difluoromethoxy)-5-ethylsulfanyl-phenyl]pyrazol-4-yl]pyrazolo[1,5-a]pyrimidine-3-carboxamide] |  | 25 nM |
|  |  | 0.29 nM |  |  | Cn1cc(NC(=O)c2cnn3cccnc23)c(-c2cc(SC3COC3)ccc2OC(F)F)n1 [F] | greater selectivity for JAK1 over LRRK2 than their 5-chlorophenyl matched pair A |  |
|  |  | 0.16 nM |  |  | Cn1cc(NC(=O)c2cnn3cccnc23)c(-c2cc(SC(CF)CF)ccc2OC(F)F)n1 [G] | greater selectivity for JAK1 over LRRK2 than their 5-chlorophenyl matched pair A |  |
|  |  |  |  |  | CSc1ccc(OC(F)F)c(-c2nn(CC(C)(C)O)cc2NC(=O)c2cnn3cccnc23)c1 [H] | greater selectivity for JAK1 over LRRK2 than its 5-chlorophenyl matched pair B |  |
|  |  | 0.67 nM |  |  | CSc1ccc(OC(F)F)c(-c2nn(C3CCOCC3)cc2NC(=O)c2cnn3cccnc23)c1 [I] | greater selectivity for JAK1 over LRRK2 than its 5-chlorophenyl matched pair C |  |
| 2450 nM | 8167 | 0.3 nM |  |  | COC(=O)N1CCN(CC2CCN(C(=O)Cn3cc(NC(=O)c4cnn5cccnc45)c(-c4cc(SC)ccc4OC(F)F)n3)CC2)CC1 [J] | high degree of JAK1 over LRRK2 selectivity |  |
| 1700 nM | 8500 | 0.2 nM |  |  | CSc1ccc(OC(F)F)c(-c2nn(CC(=O)N3CCC(N4CCC[C@@H](C#N)C4)CC3)cc2NC(=O)c2cnn3cccnc23)c1 [K] | high degree of JAK1 over LRRK2 selectivity |  |
